Here are results for four compounds from paper PMC6630718, “Discovery of Novel UV-Filters with Favorable Safety Profiles in the 5-Arylideneimidazolidine-2,4-dione Derivatives Group” (Molecules, 2019).

Data set [1] is described as follows: Ultraviolet spectroscopy in methanol solutions. The class given is physicochemical. To be noted: for Absorption Range: scan range 290–400 nm. As to the method: Spectra with a scan range of 290–400 nm were recorded in 50 or 25 μM methanol solutions, in 1 cm path length, 1.5 mL quartz cuvettes on a U-2800 double beam spectrophotometer (Hitachi, Tokyo, Japan) controlled by UV Solution version 2.2 software. The molar extinction coefficient at maximum absorption (εmax) of tested compounds was determined in methanol as the slope of the linear regression of absorbance vs. concentration of tested compound (from 10 to 50 μM or 2.5 to 30 μM).

Data set [2] in a line: In vitro photoprotection study of 2% (w/w) macrogol formulations on PMMA plates. An excerpt:
The composition of formulations and concentration of tested compounds were based on their limited solubility. N-monosubstituted compounds 2a–2e were insoluble at desirable concentrations in the typical solvents used in cosmetic formulations such as alcohols, triacetin, surfactants, and co-surfactants. To dissolve compounds 2a and 2b before incorporation to the formulation DMSO: Tween 20 (1:9 w/w) was used, for less soluble 2c–2e it was necessary to use DMSO alone as solvent. […] Thus the detailed composition of the formulations is as follows: F1–Tween 20 43.2%, PEG-400 25%, PEG-1500 25%, Triacetin 4.8%, tested compound 2%; F2–Tween 20 43.2%, PEG-400 25%, PEG-1500 25%, DMSO 4.8%, tested compound 2%; F3–PEG-400 25%, PEG-1500 25%, DMSO 48%, tested compound 2%. Considering the disadvantages of currently reported macrogol formulations and the low concentration achieved for the tested compounds (2%), we plan to work on cosmetic emulsions containing the most promising derivatives at higher concentrations as well as required excipients including preservatives, antioxidants, etc. This research will be carried out in the near future.
Tested compounds and commercial UV filters as reference standards were incorporated to a neutral macrogel formulation in the concentration of 2%. Prior to the incorporation, compounds 3a–3e and 4f–4h and reference UV-filters were dissolved in a triacetin:Tween 20 (1:9) solvent system. For compounds 2a–2e it was necessary to use DMSO. The final composition of the macrogol formulations is presented in the photoprotective activity section.
In vitro photoprotection study was performed according to EN ISO 24443:2012 [71] with slight modifications. Formulation with tested compound (32.5 mg) was applied on a polymethylmethacrylate plate (PMMA) with the application area 25 cm^2 and 5 µm roughness value to simulate the skin surface (Schonberg GmbH, Hamburg, Germany). As a reference a PMMA plate treated with approximately 15 µL of glycerin was used. Measurements were carried out by reflectance spectrophotometry with SPF-290AS Analyser (Solar Light Company, Glenside, PA, USA) equipped with integrating sphere controlled by WinSPF version X.X. software. For each sample two plates were prepared, absorbance measures were performed on 6 different positions of the plate from 290 to 400 nm with 1 nm steps. The results were expressed as an average of data from 12 scans.

Data set [3] is described as follows: Photostability in methanol solutions (solar light simulator). The class given is physicochemical. Also on record: λmax pre-irradiation: unit not given beside the values. To be noted: methanol solution; for % of initial AUC post-irradiation / λmax post-irradiation: 1h irradiation at 500 W/m2. The protocol:
(§1) The photostability evaluation of compounds was performed both in methanol solutions and in macrogol formulations. Irradiation of samples according to previous studies was conducted for 1 h at 500 W/m^2 (cumulative dose of ultraviolet radiation 218 kJ/m^2) with solar light simulator (Suntest CPS+, Atlas, Linsengericht, Germany) equipped with an optical filter cutting off wavelengths shorter than 290 nm and IR-block filter to neutralize thermal effects. The UV absorption spectrum of the samples were analysed post-irradiation and compared with pre-irradiation results. UPLC-MS/MS analyses were also performed.
(§2) Methanol solutions were tested at concentration 25 or 50 µM in quartz cuvettes with the PTFE stopper to prevent evaporation or leaking of the solvent. Macrogol formulations (2% w/w) were tested on PMMA plates (1.3 mg/cm^2). After post-irradiation measure of UV absorption, exposed and unexposed plates were washed with 5 mL of methanol, then mixtures were filtered and analysed by UPLC-MS/MS. All analyses were performed in duplicates.

Data set [4] is described as follows: Photostability in macrogol formulations on PMMA plates (solar light simulator). The class given is physicochemical. The following applies: for new photoproduct (besides photoisomer), relative peak area: macrogol formulation, post-irradiation chromatogram. As to the method: After irradiation of thin layer of formulations applied on PMMA plates, their photoprotective parameters were determined and compared with the pre-irradiation results. The study gives an overview on functional photostability of the tested compounds. It is an important test, because the photostability of some compounds in low concentrated solutions may meaningfully differ from results obtained for higher concentrations used in sunscreen products. […] In the present study both UVB and UVA-absorbers were tested, so the changes in SPFin vitro, UVA PF and AUC after irradiation are taken into account as a measure of photostability.
as §1, §2

The mark [5] stands for this setting: 2% (w/w) macrogol formulation F2 (DMSO 4.8%).
The mark [6] stands for this setting: after 1 h irradiation at 500 W/m^2, formulation F2 (DMSO 4.8%).
The mark [7] stands for this setting: after 1 h irradiation at 500 W/m^2, formulation F3 (DMSO 48%).
The mark [8] stands for this setting: 2% (w/w) macrogol formulation F1 (Triacetin 4.8%).
[9] abbreviates: 2% (w/w) macrogol formulation F1 (Tween 20, PEG-400, PEG-1500, Triacetin 4.8%).
Where [10] appears, read: after 1 h irradiation at 500 W/m^2, formulation F1.

SMILES strings stand for the structures.

By melting point is commonly meant the temperature, or range, at which the solid turns liquid. Compound `CCOC(=O)CN1C(=O)N/C(=C\c2ccc(OC)cc2)C1=O` [Compound 2b, Ethyl (Z)-2-(4-(4-methoxybenzylidene)-2,5-dioxoimidazolidin-1-yl)acetate] came in with a melting point of 178 to 179 °C. In data set [1], the εmax amounted to 31920 M⁻¹ cm⁻¹, the λmax was found to be 334 nm and the “Absorption Range” value is 290–372 nm. Also, in data set [2] (setting [5]), the SPFin vitro was 3.20 ± 0.07, the “UVA PF” value stood at 4.29 ± 0.11, the “UVA/UVB Ratio” value amounted to 1.20 ± 0.00 and the λc (critical wavelength) turned out to be 363 nm. Besides, in data set [3], the λmax pre-irradiation was 334, the “% of initial AUC post-irradiation” value is 95.67% and the λmax post-irradiation is 341. The “improvement of the functional photostability” value in data set [4] (DMSO in formulation reduced from 48 to 4.8%) is 30.2%. In data set [4] (setting [6]), the “% of Initial AUC” value is reported as 59.55%, the “% of Initial SPFin vitro” value was 57.19% and the “% of Initial UVA PF” value is recorded as 54.31%. Besides, in data set [4] (setting [7]), the “% of Initial AUC” value is given as 35.28%, the “% of Initial SPFin vitro” value is listed as 36.51% and the “% of Initial UVA PF” value is listed as 24.13%. Further, the “decrease of tested parameters (SPFin vitro, UVA PF, AUC) after irradiation” value in data set [4] (formulation with DMSO 48% (F3), extreme values) is on record as 75.9%.

The compound `CCOC(=O)CN1C(=O)/C(=C/c2ccccc2)N(CC(=O)OCC)C1=O` [Compound 3a, Diethyl 2,2′-((Z)-4-benzylidene-2,5-dioxoimidazolidine-1,3-diyl)diacetate] yielded a melting point of 47 to 49 °C. Besides, in data set [1], the “hypsochromic shift of λmax compared to N-monosubstituted derivatives” value amounted to 21 nm, the εmax worked out at 13980 M⁻¹ cm⁻¹, the λmax is 295 nm and the “Absorption Range” value is on record as 290–335 nm. Moreover, in data set [2] (setting [8]), the “UVA PF” value is recorded as 1.29 ± 0.09, the “UVA/UVB Ratio” value is on record as 0.16 ± 0.02 and the λc (critical wavelength) worked out at 331 nm. In addition, the SPFin vitro in data set [2] (setting [9]) worked out at 2.97 ± 0.45. Also, in data set [3], the λmax pre-irradiation is 295, the “% of initial AUC post-irradiation” value is recorded as 122.34% and the λmax post-irradiation is 301. In data set [4] (setting [10]), the “% of Initial AUC” value was 88.19%, the “% of Initial SPFin vitro” value is listed as 83.31% and the “% of Initial UVA PF” value is given as 103.50%.

Take `CCOC(=O)CN1C(=O)/C(=C/c2ccc(OCC)cc2)N(CC(=O)OCC)C1=O` [Compound 3c, Diethyl 2,2′-((Z)-4-(4-ethoxybenzylidene)-2,5-dioxoimidazolidine-1,3-diyl)diacetate]: the melting point was 44 to 46 °C. In addition, in data set [1], the εmax is 17010 M⁻¹ cm⁻¹, the λmax is 321 nm and the “Absorption Range” value is given as 290–367 nm. Also, in data set [2] (setting [8]), the “UVA PF” value is listed as 2.46 ± 0.01, the “UVA/UVB Ratio” value came to 1.05 ± 0.03 and the λc (critical wavelength) came to 370 nm. In data set [2] (setting [9]), this compound yielded an SPFin vitro of 2.49 ± 0.08. Further, in data set [3], the λmax pre-irradiation is reported as 321, the “% of initial AUC post-irradiation” value is 119.42% and the λmax post-irradiation is given as 329. Further, in data set [4] (setting [10]), the “% of Initial AUC” value is given as 85.29%, the “% of Initial SPFin vitro” value is 88.73% and the “% of Initial UVA PF” value is given as 86.59%. Further, in data set [4], the “new photoproduct (besides photoisomer), relative peak area” value is 2.8%.

For the compound `CCOC(=O)CN1C(=O)/C(=C/c2ccc(OC)cc2OC)N(CC(=O)OCC)C1=O` [Compound 3d, Diethyl 2,2′-((Z)-4-(2,4-dimethoxybenzylidene)-2,5-dioxoimidazolidine-1,3-diyl)diacetate], the melting point lay within 88 to 90 °C. Also, in data set [1], the εmax turned out to be 17310 M⁻¹ cm⁻¹, the λmax is 333 nm and the “Absorption Range” value is listed as 290–374 nm. In data set [2] (setting [8]), the “UVA PF” value worked out at 2.35 ± 0.03, the “UVA/UVB Ratio” value stood at 1.63 ± 0.01 and the λc (critical wavelength) worked out at 383 nm. This compound also registered an SPFin vitro in data set [2] (setting [9]) of 1.84 ± 0.02. In addition, in data set [3], the λmax pre-irradiation is listed as 333, the “% of initial AUC post-irradiation” value is recorded as 111.55% and the λmax post-irradiation is 342. Also, in data set [4] (setting [10]), the “% of Initial AUC” value was 94.01%, the “% of Initial SPFin vitro” value was 89.92% and the “% of Initial UVA PF” value is 97.66%. The “new photoproduct (besides photoisomer), relative peak area” value in data set [4] was “no additional peaks besides the photoisomer”.
